#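 Briefly, cells in 96-well plates were exposed to five compound concentrations for 48 h, and endpoints were estimated by linear interpolation. TGI: total growth inhibition.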
# Columns and labels:
# Experiment in all cases: NCI tumour cell line growth inhibition, 48 h
# SF-268 CNS = tested on: SF-268 CNS
# PC-3 prostate = tested on: PC-3 prostate
# DU-145 prostate = tested on: DU-145 prostate
# OVCAR-4 ovarian = tested on: OVCAR-4 ovarian
# A549 NSCLC = tested on: A549 NSCLC
# COLO 205 colon = tested on: COLO 205 colon
# OVCAR-5 ovarian = tested on: OVCAR-5 ovarian
# MALME-3M melanoma = tested on: MALME-3M melanoma
# SNB-19 CNS = tested on: SNB-19 CNS
# CCRF-CEM leukemia = tested on: CCRF-CEM leukemia
# HCT-15 colon = tested on: HCT-15 colon
# UACC-62 melanoma = tested on: UACC-62 melanoma
# MCF7 breast = tested on: MCF7 breast
# MOLT-4 leukemia = tested on: MOLT-4 leukemia
# SK-OV-3 ovarian = tested on: SK-OV-3 ovarian
# SW-620 colon = tested on: SW-620 colon
# SN12C renal = tested on: SN12C renal
# BT-549 breast = tested on: BT-549 breast
# T-47D breast = tested on: T-47D breast
# HT29 colon = tested on: HT29 colon
# UACC-257 melanoma = tested on: UACC-257 melanoma
# MDA-MB-435 = tested on: MDA-MB-435
# KM12 colon = tested on: KM12 colon
# MDA-N = tested on: MDA-N
# OVCAR-8 ovarian = tested on: OVCAR-8 ovarian
# TK-10 renal = tested on: TK-10 renal
# M14 melanoma = tested on: M14 melanoma
# MDA-MB-231 breast = tested on: MDA-MB-231 breast
# OVCAR-3 ovarian = tested on: OVCAR-3 ovarian
# UO-31 renal = tested on: UO-31 renal
# RXF 393 renal = tested on: RXF 393 renal
# NCI-H23 lung = tested on: NCI-H23 lung
# HOP-62 NSCLC = tested on: HOP-62 NSCLC
# HCT-116 colon = tested on: HCT-116 colon
# SR leukemia = tested on: SR leukemia
# ACHN renal = tested on: ACHN renal
# NCI-H460 lung = tested on: NCI-H460 lung
# SF-539 CNS = tested on: SF-539 CNS
# HCC-2998 colon = tested on: HCC-2998 colon
# SK-MEL-5 melanoma = tested on: SK-MEL-5 melanoma
# HS 578T breast = tested on: HS 578T breast
# K-562 leukemia = tested on: K-562 leukemia
# SNB-75 CNS = tested on: SNB-75 CNS
# LOX IMVI melanoma = tested on: LOX IMVI melanoma
# CAKI-1 renal = tested on: CAKI-1 renal
# NCI/ADR-RES ovarian = tested on: NCI/ADR-RES ovarian
# 786-0 renal = tested on: 786-0 renal
# EKVX NSCLC = tested on: EKVX NSCLC
# SF-295 CNS = tested on: SF-295 CNS
# IGROV1 ovarian = tested on: IGROV1 ovarian
# SK-MEL-2 melanoma = tested on: SK-MEL-2 melanoma
# HL-60(TB) leukemia = tested on: HL-60(TB) leukemia
# NCI-H226 lung = tested on: NCI-H226 lung
# U251 CNS = tested on: U251 CNS
# NCI-H522 lung = tested on: NCI-H522 lung
# SK-MEL-28 melanoma = tested on: SK-MEL-28 melanoma
# RPMI-8226 leukemia = tested on: RPMI-8226 leukemia
# HOP-92 NSCLC = tested on: HOP-92 NSCLC
structure (smiles),measurement,setting,value
Cn1nnc2c3c(N(CCO)CCO)ccnc3ccc21,TGI,SF-268 CNS,> 100 µM
same,TGI,PC-3 prostate,> 100 µM
same,TGI,DU-145 prostate,> 100 µM
same,TGI,OVCAR-4 ovarian,> 100 µM
same,TGI,A549 NSCLC,> 100 µM
same,TGI,COLO 205 colon,> 100 µM
same,TGI,OVCAR-5 ovarian,> 100 µM
same,TGI,MALME-3M melanoma,> 100 µM
same,TGI,SNB-19 CNS,> 100 µM
same,TGI,CCRF-CEM leukemia,> 100 µM
same,TGI,HCT-15 colon,> 100 µM
same,TGI,UACC-62 melanoma,> 100 µM
same,TGI,MCF7 breast,> 100 µM
same,TGI,MOLT-4 leukemia,> 100 µM
same,TGI,SK-OV-3 ovarian,> 100 µM
same,TGI,SW-620 colon,> 100 µM
same,TGI,SN12C renal,> 100 µM
same,TGI,BT-549 breast,> 100 µM
same,TGI,T-47D breast,> 100 µM
same,TGI,HT29 colon,> 100 µM
same,TGI,UACC-257 melanoma,> 100 µM
same,TGI,MDA-MB-435,> 100 µM
same,TGI,KM12 colon,> 100 µM
same,TGI,MDA-N,> 100 µM
same,TGI,OVCAR-8 ovarian,> 100 µM
same,TGI,TK-10 renal,> 100 µM
same,TGI,M14 melanoma,> 100 µM
same,TGI,MDA-MB-231 breast,> 100 µM
same,TGI,OVCAR-3 ovarian,> 100 µM
same,TGI,UO-31 renal,> 100 µM
same,TGI,RXF 393 renal,> 100 µM
same,TGI,NCI-H23 lung,> 100 µM
same,TGI,HOP-62 NSCLC,> 100 µM
same,TGI,HCT-116 colon,> 100 µM
same,TGI,SR leukemia,> 100 µM
same,TGI,ACHN renal,> 100 µM
same,TGI,NCI-H460 lung,> 100 µM
same,TGI,SF-539 CNS,> 100 µM
same,TGI,HCC-2998 colon,91.2 µM
same,TGI,SK-MEL-5 melanoma,> 100 µM
same,TGI,HS 578T breast,> 100 µM
same,TGI,K-562 leukemia,> 100 µM
same,TGI,SNB-75 CNS,> 100 µM
same,TGI,LOX IMVI melanoma,> 100 µM
same,TGI,CAKI-1 renal,> 100 µM
same,TGI,NCI/ADR-RES ovarian,> 100 µM
same,TGI,786-0 renal,> 100 µM
same,TGI,EKVX NSCLC,> 100 µM
same,TGI,SF-295 CNS,> 100 µM
same,TGI,IGROV1 ovarian,> 100 µM
same,TGI,SK-MEL-2 melanoma,> 100 µM
Cc1ccc(S(=O)(=O)N/N=C2/CCC3(O)CC2(C)CCC2[C@H]3CC2(C)C)cc1 (stereo not given in full),TGI,SF-268 CNS,> 100 µM
same,TGI,PC-3 prostate,65.1 µM
same,TGI,DU-145 prostate,> 100 µM
same,TGI,OVCAR-4 ovarian,> 100 µM
same,TGI,A549 NSCLC,> 100 µM
same,TGI,COLO 205 colon,33.1 µM
same,TGI,OVCAR-5 ovarian,78.1 µM
same,TGI,MALME-3M melanoma,> 100 µM
same,TGI,HL-60(TB) leukemia,> 100 µM
same,TGI,NCI-H226 lung,70.9 µM
same,TGI,SNB-19 CNS,> 100 µM
same,TGI,CCRF-CEM leukemia,86.1 µM
same,TGI,HCT-15 colon,> 100 µM
same,TGI,UACC-62 melanoma,60 µM
same,TGI,U251 CNS,36 µM
same,TGI,MCF7 breast,> 100 µM
same,TGI,MOLT-4 leukemia,45.2 µM
same,TGI,SK-OV-3 ovarian,> 100 µM
same,TGI,SW-620 colon,> 100 µM
same,TGI,SN12C renal,> 100 µM
same,TGI,BT-549 breast,86.4 µM
same,TGI,T-47D breast,> 100 µM
same,TGI,HT29 colon,99.5 µM
same,TGI,UACC-257 melanoma,> 100 µM
same,TGI,MDA-MB-435,57.7 µM
same,TGI,KM12 colon,> 100 µM
same,TGI,MDA-N,92 µM
same,TGI,OVCAR-8 ovarian,> 100 µM
same,TGI,TK-10 renal,> 100 µM
same,TGI,M14 melanoma,> 100 µM
same,TGI,NCI-H522 lung,91.9 µM
same,TGI,OVCAR-3 ovarian,> 100 µM
same,TGI,UO-31 renal,68.6 µM
same,TGI,NCI-H23 lung,83.5 µM
same,TGI,HOP-62 NSCLC,> 100 µM
same,TGI,HCT-116 colon,75.7 µM
same,TGI,SR leukemia,> 100 µM
same,TGI,ACHN renal,> 100 µM
same,TGI,NCI-H460 lung,64.3 µM
same,TGI,SK-MEL-5 melanoma,33.1 µM
same,TGI,HS 578T breast,> 100 µM
same,TGI,K-562 leukemia,90.7 µM
same,TGI,SNB-75 CNS,87.3 µM
same,TGI,LOX IMVI melanoma,28.6 µM
same,TGI,CAKI-1 renal,> 100 µM
same,TGI,NCI/ADR-RES ovarian,> 100 µM
same,TGI,786-0 renal,> 100 µM
same,TGI,EKVX NSCLC,> 100 µM
same,TGI,SK-MEL-28 melanoma,61.2 µM
same,TGI,RPMI-8226 leukemia,> 100 µM
same,TGI,SF-295 CNS,93 µM
same,TGI,IGROV1 ovarian,74.3 µM
same,TGI,SK-MEL-2 melanoma,69.2 µM
same,TGI,HOP-92 NSCLC,87.6 µM
